Literature values, collected in paper PMC2211560 (PLoS Medicine, 2008).
Like-named read-outs stand apart in the source and are kept apart here.

Legend:
[1] = rats, cited from earlier work
[2] = monkeys, cited from earlier work
[3] = cited from earlier work
several tumor types = settings: Phase I trials; renal cell cancer, soft tissue sarcoma, cervical, endometrial, non-small cell cancer, non-Hodgkins lymphoma; cited from earlier work
[4] = rats and monkeys; daily for 14 days or daily for 5 days IV every 2 weeks, 4 courses; cited from earlier work
[5] = in vitro or in vivo; cited from earlier work
[6] = system: cytochrome P450 3A (CYP3A); settings: human liver microsomal fractions; cited from earlier work
[7] = cited from earlier work; remark: listed apart in the source
[8] = doses of 0.1-2.5 mg/kg, printed jointly for monkeys and rats

SMILES: CO[C@H]1C[C@@H]2CC[C@@H](C)[C@@](O)(O2)C(=O)C(=O)N2CCCC[C@H]2C(=O)O[C@H]([C@H](C)C[C@@H]2CC[C@@H](OC(=O)C(C)(CO)CO)[C@H](OC)C2)CC(=O)[C@H](C)/C=C(\C)[C@@H](O)[C@@H](OC)C(=O)[C@H](C)C[C@H](C)/C=C/C=C/C=C/1C [CCI-779]
- elimination half life [1, 8]: 8 to 16 h
- volume of distribution (Vdss) [1]: 13 to 19 L/kg
- elimination half life [2, 8]: 8 to 16 h
- volume of distribution (Vdss) [2]: 1 to 5 L/kg
- blood/plasma (B/P) ratio, mean (range) ([3]; 0.75 to 3.12 mg/m^2 daily x 5 schedule): 9.8 (2.4-20)
- mean exposure ratio (rapamycin to CCI-779) ([3]; blood, after CCI-779): ~3.2
- half-life ([3]; weekly dosing): 19.3 h
- half-life, range ([3]; weekly dosing): 13 to 39 h
- mean clearance ([3]; weekly dosing): 22 L/h
- volume of distribution at steady state ([3]; weekly dosing): 306 L
- Tumor regression (several tumor types): less than 50%
- life-threatening toxicity [4]: No life-threatening toxicity was observed
- mutagenic effects [5]: no mutagenic effects
- metabolising enzyme [6]: primarily metabolized by cytochrome P450 3A (CYP3A)
- MTD ([7]; daily x 5 every 2 weeks, heavily pretreated patients): 15 mg/m^2
- MTD ([7]; daily x 5 every 2 weeks, minimally pretreated patients): 19.1 mg/m^2
- MTD ([7]; weekly schedule, doses 7.5 mg/m^2 to 220 mg/m^2): has not yet been reached
